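Dose response: 5 concentrations. Exposure: 48 h. Format: 96-well plates. Endpoint: linear interpolation; highest concentration if not reached. TGI is the concentration that stops growth completely.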
Assays:
Assay in all cases: DTP human tumour cell line panel, 48 h
[1] = tested on: 786-0 renal
[2] = tested on: HOP-62 NSCLC
[3] = tested on: EKVX NSCLC
[4] = tested on: SK-MEL-5 melanoma
[5] = tested on: RXF 393 renal
[6] = tested on: NCI-H226 lung
[7] = tested on: SK-MEL-2 melanoma
[8] = tested on: UACC-62 melanoma
[9] = tested on: HCT-15 colon
[10] = tested on: SNB-19 CNS
[11] = tested on: COLO 205 colon
[12] = tested on: A498 renal
[13] = tested on: NCI-H522 lung
[14] = tested on: OVCAR-8 ovarian
[15] = tested on: HL-60(TB) leukemia
[16] = tested on: K-562 leukemia
[17] = tested on: SK-MEL-28 melanoma
[18] = tested on: OVCAR-4 ovarian
[19] = tested on: HCC-2998 colon
[20] = tested on: SF-268 CNS
[21] = tested on: NCI-H460 lung
[22] = tested on: PC-3 prostate
[23] = tested on: IGROV1 ovarian
[24] = tested on: NCI/ADR-RES ovarian
[25] = tested on: M14 melanoma
[26] = tested on: UACC-257 melanoma
[27] = tested on: U251 CNS
[28] = tested on: RPMI-8226 leukemia
[29] = tested on: SF-295 CNS
[30] = tested on: LOX IMVI melanoma
[31] = tested on: DU-145 prostate
[32] = tested on: CCRF-CEM leukemia
[33] = tested on: A549 NSCLC
[34] = tested on: MDA-N
[35] = tested on: MOLT-4 leukemia
[36] = tested on: SNB-75 CNS
[37] = tested on: SK-OV-3 ovarian
[38] = tested on: SW-620 colon
[39] = tested on: HCT-116 colon
[40] = tested on: SN12C renal
[41] = tested on: OVCAR-5 ovarian
[42] = tested on: HT29 colon
[43] = tested on: HOP-92 NSCLC
[44] = tested on: BT-549 breast
[45] = tested on: NCI-H23 lung
[46] = tested on: KM12 colon
[47] = tested on: T-47D breast
[48] = tested on: TK-10 renal
[49] = tested on: ACHN renal
[50] = tested on: MDA-MB-231 breast
[51] = tested on: UO-31 renal
[52] = tested on: MCF7 breast
[53] = tested on: SF-539 CNS
[54] = tested on: MALME-3M melanoma
[55] = tested on: CAKI-1 renal
[56] = tested on: HS 578T breast

`COc1ccccc1NC1Oc2cc3c(cc2C(c2cc(OC)c(OC)c(OC)c2)C1C)OCO3` (stereo unspecified) showed a TGI [1] of 36.8 µM, a TGI [2] greater than 51.1 µM and a TGI [3] greater than 100 µM. It also gave a TGI [4] of 16.8 µM, a TGI [5] of 7.62 µM and a TGI [6] of 9.92 µM. The TGI [7] was greater than 100 µM, the TGI [8] was greater than 60.9 µM and the TGI [9] was greater than 100 µM. For the same molecule, the TGI [10] was greater than 100 µM, the TGI [11] was 5.79 µM and the TGI [12] was greater than 30 µM. The TGI [13] was 4.82 µM, the TGI [14] was greater than 64.2 µM and the TGI [15] was 3.36 µM. It also gave a TGI [16] of 12.5 µM, a TGI [17] greater than 100 µM and a TGI [18] greater than 78.5 µM. For the same molecule, the TGI [19] was 7.93 µM, the TGI [20] was greater than 46.2 µM and the TGI [21] was greater than 100 µM. It also gave a TGI [22] greater than 100 µM, a TGI [23] greater than 100 µM and a TGI [24] greater than 33.1 µM. It also gave a TGI [25] greater than 100 µM, a TGI [26] greater than 100 µM and a TGI [27] of 51.2 µM. It also gave a TGI [28] of 21 µM, a TGI [29] of 2.99 µM and a TGI [30] greater than 100 µM. For the same molecule, the TGI [31] was greater than 100 µM, the TGI [32] was greater than 50.3 µM and the TGI [33] was greater than 100 µM. It also gave a TGI [34] of 1.82 µM, a TGI [35] of 33 µM and a TGI [36] of 16.7 µM. It also gave a TGI [37] greater than 31.1 µM, a TGI [38] greater than 100 µM and a TGI [39] greater than 33.1 µM. For the same molecule, the TGI [40] was greater than 65.3 µM, the TGI [41] was greater than 100 µM and the TGI [42] was greater than 100 µM. It also gave a TGI [43] greater than 22.8 µM, a TGI [44] greater than 70.8 µM and a TGI [45] greater than 82.1 µM. It also gave a TGI [46] of 29.4 µM, a TGI [47] greater than 100 µM and a TGI [48] greater than 100 µM. It also gave a TGI [49] greater than 100 µM, a TGI [50] greater than 23.9 µM and a TGI [51] of 43.8 µM. The TGI [52] was greater than 100 µM, the TGI [53] was 5.24 µM and the TGI [54] was 9.43 µM. The TGI [55] was 17.1 µM and the TGI [56] was greater than 25.2 µM.
